According to patent publication US10961231B2, “NTCP inhibitors” (National Institute of Biological Sciences, Beijing, priority 2018, dated 2021):

Target: T1, NTCP (Homo sapiens, UniProt Q14973)
T1 sequence (Q14973 1-349): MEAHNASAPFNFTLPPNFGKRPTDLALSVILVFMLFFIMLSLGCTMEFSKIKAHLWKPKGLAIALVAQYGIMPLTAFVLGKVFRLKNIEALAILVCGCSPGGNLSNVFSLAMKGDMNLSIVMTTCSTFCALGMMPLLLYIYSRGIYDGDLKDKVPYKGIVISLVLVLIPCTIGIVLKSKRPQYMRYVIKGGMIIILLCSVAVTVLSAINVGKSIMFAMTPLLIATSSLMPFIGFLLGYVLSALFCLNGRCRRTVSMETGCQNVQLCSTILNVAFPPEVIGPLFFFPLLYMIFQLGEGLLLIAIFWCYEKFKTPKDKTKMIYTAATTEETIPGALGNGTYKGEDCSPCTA
Test: [3H]-TCA uptake assay (NTCP inhibition)
Format: cell-based
Experimental: [^3H]-TCA uptake assay. PTH and HepG2-NTCP cells were cultured in PMM for 24 hours to induce NTCP expression. After treated by DMSO or test compounds for 2 hours, the cells were then incubated with 1 μM [^3H]-taurocholate acid dissolved in Na^+ Ringer's buffer (the concentration of Na was 145 mM) for 15 minutes at 37° C. Subsequently, the cells were washed once in phosphate-buffered saline (PBS) and lysed in 50 μL 1% TritonX-100 in H2O for 5 minutes at room temperature. The lysate were totally transferred into a liquid scintillation 96 well plate and mixed with 200 μL liquid scintillation cocktail (Ultima Gold XR, PerkinElmer). Liquid scintillation counting was performed on a PerkinElmer 1450 LSC liquid scintillation counter.

[1] = IC50, given as a range, marked * (asterisk not explained)
[2] = given as a range, assay not given
[3] = given as a range, marked * (asterisk not explained)

With `CCC1NC(=O)C(C2OC(SC(C)c3ccc(Cl)c(Cl)c3)CC2C)N(C)C(=O)C(C(C)C)N(C)C(=O)C(CC(C)C)N(C)C(=O)C(CC(C)C)N(C)C(=O)C(C)NC(=O)C(C)NC(=O)C(CC(C)C)N(C)C(=O)C(C(C)C)NC(=O)C(CC(C)C)N(C)C(=O)CN(C)C1=O` (stereo not drawn) [Compound 96A-s] the IC50 [1] was 1 to 100 µM.

Work on `CCC1NC(=O)C(C2OC(Sc3cccc(OCc4ccn(C)c(=O)c4)c3)CC2C)N(C)C(=O)C(C(C)C)N(C)C(=O)C(CC(C)C)N(C)C(=O)C(CC(C)C)N(C)C(=O)C(C)NC(=O)C(C)NC(=O)C(CC(C)C)N(C)C(=O)C(C(C)C)NC(=O)C(CC(C)C)N(C)C(=O)CN(C)C1=O` [Compound 16A, [2-((2R,3R)-3-methyl-5-(3-((1-methyl-2-oxo-1,2-dihydropyridin-4-yl)methoxy)phenylthio)tetrahydrofuran-2-yl)-2-(methylamino)acetic acid]^1-cyclosporin A] yielded an IC50 [2] of 1 to 10 µM.

For `CCC1NC(=O)C(C2OC(OC(C)c3ccc(Cl)c(Cl)c3)CC2C)N(C)C(=O)C(C(C)C)N(C)C(=O)C(CC(C)C)N(C)C(=O)C(CC(C)C)N(C)C(=O)C(C)NC(=O)C(C)NC(=O)C(CC(C)C)N(C)C(=O)C(C(C)C)NC(=O)C(CC(C)C)N(C)C(=O)CN(C)C1=O` (single isomer, unassigned) [Compound 96A], the IC50 [2] was 0.001 to 1 µM.

`CCC1NC(=O)C(C2OC(SCc3ccccc3)CC2C)N(C)C(=O)C(C(C)C)N(C)C(=O)C(CC(C)C)N(C)C(=O)C(CC(C)C)N(C)C(=O)C(C)NC(=O)C(C)NC(=O)C(CC(C)C)N(C)C(=O)C(C(C)C)NC(=O)C(CC(C)C)N(C)C(=O)CN(C)C1=O` (stereo not drawn) [Compound 74A-s] showed an IC50 [1] of 1 to 100 µM.

`CCC1NC(=O)C(C2OC(SCc3cccc(Cl)c3OC)CC2C)N(C)C(=O)C(C(C)C)N(C)C(=O)C(CC(C)C)N(C)C(=O)C(CC(C)C)N(C)C(=O)C(C)NC(=O)C(C)NC(=O)C(CC(C)C)N(C)C(=O)C(C(C)C)NC(=O)C(CC(C)C)N(C)C(=O)CN(C)C1=O` (stereo not drawn) [Compound 88A-s] was tested, and the IC50 [1] was 1 to 100 µM.

For `CCC1NC(=O)C(C2OC(OCc3cc(Cl)cc(Cl)c3)CC2C)N(C)C(=O)C(C(C)C)N(C)C(=O)C(CC(C)C)N(C)C(=O)C(CC(C)C)N(C)C(=O)C(C)NC(=O)C(C)NC(=O)C(CC(C)C)N(C)C(=O)C(C(C)C)NC(=O)C(CC(C)C)N(C)C(=O)CN(C)C1=O` [Compound 91B, [2-((2R,3R)-5-(3,5-dichlorobenzyloxy)-3-methyltetrahydrofuran-2-yl)-2-(methylamino)acetic acid]^1-cyclosporin A], the IC50 [2] was 0.001 to 1 µM.

Compound `CCC1NC(=O)C(C2OC(Oc3cccc(OCc4ccccc4F)c3)CC2C)N(C)C(=O)C(C(C)C)N(C)C(=O)C(CC(C)C)N(C)C(=O)C(CC(C)C)N(C)C(=O)C(C)NC(=O)C(C)NC(=O)C(CC(C)C)N(C)C(=O)C(C(C)C)NC(=O)C(CC(C)C)N(C)C(=O)CN(C)C1=O` (stereo not drawn) [Compound 19A-o] has an IC50 [1] of 1 to 100 µM.

`CCC1NC(=O)C(C2OC(Oc3cc(OCCOC)cc(OCC4CCOCC4)c3)CC2C)N(C)C(=O)C(C(C)C)N(C)C(=O)C(CC(C)C)N(C)C(=O)C(CC(C)C)N(C)C(=O)C(C)NC(=O)C(C)NC(=O)C(CC(C)C)N(C)C(=O)C(C(C)C)NC(=O)C(CC(C)C)N(C)C(=O)CN(C)C1=O` (stereo not drawn) [Compound 55-o] showed an IC50 [3] of 1 to 100 µM.

For `CCC1NC(=O)C(C2OC(Oc3cccc(NCc4ccccc4)c3)CC2C)N(C)C(=O)C(C(C)C)N(C)C(=O)C(CC(C)C)N(C)C(=O)C(CC(C)C)N(C)C(=O)C(C)NC(=O)C(C)NC(=O)C(CC(C)C)N(C)C(=O)C(C(C)C)NC(=O)C(CC(C)C)N(C)C(=O)CN(C)C1=O` (stereo not drawn) [Compound 48A-o], the IC50 [1] was 1 to 100 µM.

In the case of `CCC1NC(=O)C(C2OC(Sc3cc(OCCOC)cc(OCc4ccccc4)c3)CC2C)N(C)C(=O)C(C(C)C)N(C)C(=O)C(CC(C)C)N(C)C(=O)C(CC(C)C)N(C)C(=O)C(C)NC(=O)C(C)NC(=O)C(CC(C)C)N(C)C(=O)C(C(C)C)NC(=O)C(CC(C)C)N(C)C(=O)CN(C)C1=O` (stereo not drawn) [Compound 11], the IC50 [3] is reported as 1 to 100 µM.

Compound `CCC1NC(=O)C(C2OC(Sc3c(OC)cccc3OC)CC2C)N(C)C(=O)C(C(C)C)N(C)C(=O)C(CC(C)C)N(C)C(=O)C(CC(C)C)N(C)C(=O)C(C)NC(=O)C(C)NC(=O)C(CC(C)C)N(C)C(=O)C(C(C)C)NC(=O)C(CC(C)C)N(C)C(=O)CN(C)C1=O` [Compound 36A, [2-((2R,3R)-5-(2,6-dimethoxyphenylthio)-3-methyltetrahydrofuran-2-yl)-2-(methylamino)acetic acid]^1-cyclosporin A] has an IC50 (IC50, given as a range, assay not given) of 1 to 10 µM.

Compound `CCC1NC(=O)C(C2OC(Oc3cc(Cl)cc(OCC4CCN(C)CC4)c3)CC2C)N(C)C(=O)C(C(C)C)N(C)C(=O)C(CC(C)C)N(C)C(=O)C(CC(C)C)N(C)C(=O)C(C)NC(=O)C(C)NC(=O)C(CC(C)C)N(C)C(=O)C(C(C)C)NC(=O)C(CC(C)C)N(C)C(=O)CN(C)C1=O` (stereo not drawn) [Compound 71-o] has an IC50 [3] of 1 to 100 µM.

Work on `CCC1NC(=O)C(C2OC(Sc3cccc(OCc4cccnc4)c3)CC2C)N(C)C(=O)C(C(C)C)N(C)C(=O)C(CC(C)C)N(C)C(=O)C(CC(C)C)N(C)C(=O)C(C)NC(=O)C(C)NC(=O)C(CC(C)C)N(C)C(=O)C(C(C)C)NC(=O)C(CC(C)C)N(C)C(=O)CN(C)C1=O` [Compound 53A, [2-((2R,3R)-3-methyl-5-(3-(pyridin-3-ylmethoxy)phenylthio)tetrahydrofuran-2-yl)-2-(methylamino)acetic acid]^1-cyclosporin A] yielded an IC50 [2] of 0.001 to 1 µM.

`CCC1NC(=O)C(C2OC(Sc3ccc(OCc4ccccc4)cc3)CC2C)N(C)C(=O)C(C(C)C)N(C)C(=O)C(CC(C)C)N(C)C(=O)C(CC(C)C)N(C)C(=O)C(C)NC(=O)C(C)NC(=O)C(CC(C)C)N(C)C(=O)C(C(C)C)NC(=O)C(CC(C)C)N(C)C(=O)CN(C)C1=O` [Compound 57A, [2-((2R,3R)-5-(4-(benzyloxy)phenylthio)-3-methyltetrahydrofuran-2-yl)-2-(methylamino)acetic acid]^1-cyclosporin A] showed an IC50 [2] of 0.001 to 1 µM.

Compound `CCC1NC(=O)C(C2OC(Oc3cc(OCCOC)cc(OCc4ccccc4)c3)CC2C)N(C)C(=O)C(C(C)C)N(C)C(=O)C(CC(C)C)N(C)C(=O)C(CC(C)C)N(C)C(=O)C(C)NC(=O)C(C)NC(=O)C(CC(C)C)N(C)C(=O)C(C(C)C)NC(=O)C(CC(C)C)N(C)C(=O)CN(C)C1=O` (stereo not drawn) [Compound 11-0] has an IC50 [3] of 1 to 100 µM.

Work on `CCC1NC(=O)C(C2OC(SC(c3ccccc3)c3ccccc3)CC2C)N(C)C(=O)C(C(C)C)N(C)C(=O)C(CC(C)C)N(C)C(=O)C(CC(C)C)N(C)C(=O)C(C)NC(=O)C(C)NC(=O)C(CC(C)C)N(C)C(=O)C(C(C)C)NC(=O)C(CC(C)C)N(C)C(=O)CN(C)C1=O` (stereo not drawn) [Compound 80A-s] yielded an IC50 [1] of 1 to 100 µM.

`CCC1NC(=O)C(C2OC(Oc3cc(Cl)cc(OCC4CCOCC4)c3)CC2C)N(C)C(=O)C(C(C)C)N(C)C(=O)C(CC(C)C)N(C)C(=O)C(CC(C)C)N(C)C(=O)C(C)NC(=O)C(C)NC(=O)C(CC(C)C)N(C)C(=O)C(C(C)C)NC(=O)C(CC(C)C)N(C)C(=O)CN(C)C1=O` (stereo not drawn) [Compound 67-o] gave an IC50 [1] of 1 to 100 µM.

With `CCC1NC(=O)C(C2OC(Oc3ccc(OC)c(OCc4ccccc4)c3)CC2C)N(C)C(=O)C(C(C)C)N(C)C(=O)C(CC(C)C)N(C)C(=O)C(CC(C)C)N(C)C(=O)C(C)NC(=O)C(C)NC(=O)C(CC(C)C)N(C)C(=O)C(C(C)C)NC(=O)C(CC(C)C)N(C)C(=O)CN(C)C1=O` (stereo not drawn) [Compound 64-o] the IC50 [3] was 1 to 100 µM.

With `CCC1NC(=O)C(C2OC(Oc3cccc(OC(C)C)c3)CC2C)N(C)C(=O)C(C(C)C)N(C)C(=O)C(CC(C)C)N(C)C(=O)C(CC(C)C)N(C)C(=O)C(C)NC(=O)C(C)NC(=O)C(CC(C)C)N(C)C(=O)C(C(C)C)NC(=O)C(CC(C)C)N(C)C(=O)CN(C)C1=O` (stereo not drawn) [Compound 30A-6] the IC50 [1] was 1 to 100 µM.

Compound `CCC1NC(=O)C(C2OC(Oc3ccc(N4CCOCC4)cc3)CC2C)N(C)C(=O)C(C(C)C)N(C)C(=O)C(CC(C)C)N(C)C(=O)C(CC(C)C)N(C)C(=O)C(C)NC(=O)C(C)NC(=O)C(CC(C)C)N(C)C(=O)C(C(C)C)NC(=O)C(CC(C)C)N(C)C(=O)CN(C)C1=O` (stereo not drawn) [Compound 3A-o] has an IC50 [1] of 1 to 100 µM.

`CCC1NC(=O)C(C2OC(Sc3cccc(NCc4ccccc4)c3)CC2C)N(C)C(=O)C(C(C)C)N(C)C(=O)C(CC(C)C)N(C)C(=O)C(CC(C)C)N(C)C(=O)C(C)NC(=O)C(C)NC(=O)C(CC(C)C)N(C)C(=O)C(C(C)C)NC(=O)C(CC(C)C)N(C)C(=O)CN(C)C1=O` [Compound 48A, [2-((2R,3R)-5-(3-(benzylamino)phenylthio)-3-methyltetrahydrofuran-2-yl)-2-(methylamino)acetic acid]^1-cyclosporin A] was tested, and the IC50 [2] was 0.001 to 1 µM.

`CCC1NC(=O)C(C2OC(Oc3ccc(Cl)c(OC)c3)CC2C)N(C)C(=O)C(C(C)C)N(C)C(=O)C(CC(C)C)N(C)C(=O)C(CC(C)C)N(C)C(=O)C(C)NC(=O)C(C)NC(=O)C(CC(C)C)N(C)C(=O)C(C(C)C)NC(=O)C(CC(C)C)N(C)C(=O)CN(C)C1=O` (stereo not drawn) [Compound 40A-o] showed an IC50 [1] of 1 to 100 µM.

For `CCC1NC(=O)C(C2OC(SCc3ccc(-n4cccn4)cc3)CC2C)N(C)C(=O)C(C(C)C)N(C)C(=O)C(CC(C)C)N(C)C(=O)C(CC(C)C)N(C)C(=O)C(C)NC(=O)C(C)NC(=O)C(CC(C)C)N(C)C(=O)C(C(C)C)NC(=O)C(CC(C)C)N(C)C(=O)CN(C)C1=O` (stereo not drawn) [Compound 77A-s], the IC50 [1] was 1 to 100 µM.

`CCC1NC(=O)C(C2OC(OCc3ccc(Cl)cc3Cl)CC2C)N(C)C(=O)C(C(C)C)N(C)C(=O)C(CC(C)C)N(C)C(=O)C(CC(C)C)N(C)C(=O)C(C)NC(=O)C(C)NC(=O)C(CC(C)C)N(C)C(=O)C(C(C)C)NC(=O)C(CC(C)C)N(C)C(=O)CN(C)C1=O` (single isomer, unassigned) [Compound 89A] was tested, and the IC50 [2] was 0.001 to 1 µM.
